*1 amine or outer side, *2 acyl side, *3 side chain or, on linkers, in order; H or OH if unused. Where a SMILES comes first, the peptide text is derived from it. Side-chain parts run from the residue outwards. [ ]: non-standard residue; d: D form. The star is where a group is joined. NH(1-naphthyl) = c1ccc2c(N*)cccc2c1; NHPh(4-CF3) = FC(F)(F)c1ccc(N*)cc1; hCit = NC(=O)NCCCC[C@H](N)C(=O)O; NH(2-Me-phenyl) = Cc1ccccc1N*; 3Abz = Nc1cccc(C(=O)O)c1; Orn = NCCC[C@H](N)C(=O)O; βNA = c1ccc2cc(N*)ccc2c1; Boc = CC(C)(C)OC(=O)*; X1 = Clc1cccc(Cl)c1N*; X7 = Clc1cccc(N*)c1Cl; CO = O=C([*:1])[*:2]; X2 = CC(C)c1ccccc1N*
Molecular target: Gastrin/cholecystokinin type B receptor (Cavia porcellus)
Assay: Binding affinity for Cholecystokinin type B receptor in guinea pig cortex by using [125I]BH-CCK-8 as radioligand

**Q.** How did the IC50 turn out when `Cc1ccccc1NC(=O)NCCC[C@H](NC(=O)[C@H](Cc1c[nH]c2ccccc12)NC(=O)OC(C)(C)C)C(=O)N[C@@H](CC(=O)O)C(=O)N[C@@H](Cc1ccccc1)C(N)=O` [3-[2-[2-tert-Butoxycarbonylamino-3-(1H-indol-3-yl)-propionylamino]-5-(3-o-tolyl-ureido)-pentanoylamino]-N-(1-carbamoyl-2-phenyl-ethyl)-succinamic acid] (Boc-W[Orn]([CO-NH(2-Me-phenyl)])DF-NH2) was run?
**A.** 15 µM

**Q.** For `CC(C)(C)OC(=O)N[C@@H](Cc1c[nH]c2ccccc12)C(=O)N[C@@H](CCCCNC(=O)Nc1cccc2ccccc12)C(=O)N[C@@H](CC(=O)O)C(=O)N[C@@H](Cc1ccccc1)C(N)=O` [3-[2-[2-tert-Butoxycarbonylamino-3-(1H-indol-3-yl)-propionylamino]-6-(3-naphthalen-1-yl-ureido)-hexanoylamino]-N-(1-carbamoyl-2-phenyl-ethyl)-succinamic acid] (Boc-WK([CO-NH(1-naphthyl)])DF-NH2), which IC50 is on record?
**A.** 11 µM

**Q.** With `CC(C)(C)OC(=O)N[C@@H](Cc1c[nH]c2ccccc12)C(=O)N[C@@H](CCCCNC(=O)Nc1ccc2ccccc2c1)C(=O)N[C@@H](CC(=O)O)C(=O)N[C@@H](Cc1ccccc1)C(N)=O` [3-[2-[2-tert-Butoxycarbonylamino-3-(1H-indol-3-yl)-propionylamino]-6-(3-naphthalen-2-yl-ureido)-hexanoylamino]-N-(1-carbamoyl-2-phenyl-ethyl)-succinamic acid] (Boc-WK([CO-βNA])DF-NH2) as the compound, how does the IC50 read?
**A.** 3.2 µM

**Q.** With `CC(C)(C)OC(=O)N[C@@H](Cc1c[nH]c2ccccc12)C(=O)N[C@@H](CCCCNC(=O)Nc1c(Cl)cccc1Cl)C(=O)N[C@@H](CC(=O)O)C(=O)N[C@@H](Cc1ccccc1)C(N)=O` [3-{2-[2-tert-Butoxycarbonylamino-3-(1H-indol-3-yl)-propionylamino]-6-[3-(2,6-dichloro-phenyl)-ureido]-hexanoylamino}-N-(1-carbamoyl-2-phenyl-ethyl)-succinamic acid] (Boc-WK([CO-X1])DF-NH2) as the compound, how does the IC50 read?
**A.** 7 µM

**Q.** How did the IC50 turn out when `CC(C)c1ccccc1NC(=O)NCCCC[C@H](NC(=O)[C@H](Cc1c[nH]c2ccccc12)NC(=O)OC(C)(C)C)C(=O)N[C@@H](CC(=O)O)C(=O)N[C@@H](Cc1ccccc1)C(N)=O` [3-{2-[2-tert-Butoxycarbonylamino-3-(1H-indol-3-yl)-propionylamino]-6-[3-(2-isopropyl-phenyl)-ureido]-hexanoylamino}-N-(1-carbamoyl-2-phenyl-ethyl)-succinamic acid] (Boc-WK([CO-X2])DF-NH2) was run?
**A.** 5.7 µM

**Q.** `CC(C)(C)OC(=O)N[C@@H](Cc1c[nH]c2ccccc12)C(=O)N[C@@H](CCCCNC(=O)Nc1ccc(C(F)(F)F)cc1)C(=O)N[C@@H](CC(=O)O)C(=O)N[C@@H](Cc1ccccc1)C(N)=O` [3-{2-[2-tert-Butoxycarbonylamino-3-(1H-indol-3-yl)-propionylamino]-6-[3-(4-trifluoromethyl-phenyl)-ureido]-hexanoylamino}-N-(1-carbamoyl-2-phenyl-ethyl)-succinamic acid] (Boc-WK([CO-NHPh(4-CF3)])DF-NH2) was tested. Which IC50 did it give?
**A.** 0.85 µM

**Q.** With `CC(C)(C)OC(=O)N[C@@H](Cc1c[nH]c2ccccc12)C(=O)N[C@@H](CCCCNC(N)=O)C(=O)N[C@@H](CC(=O)O)C(=O)N[C@@H](Cc1ccccc1)C(N)=O` [3-{2-[2-tert-Butoxycarbonylamino-3-(1H-indol-3-yl)-propionylamino]-6-ureido-hexanoylamino}-N-(1-carbamoyl-2-phenyl-ethyl)-succinamic acid] (Boc-W[hCit]DF-NH2) as the compound, how does the IC50 read?
**A.** 1 µM

Molecular target: Gastrin/cholecystokinin type B receptor (Cavia porcellus)
Assay: as above
Remark: another data set of the same source

**Q.** With `CC(C)(C)OC(=O)N[C@@H](Cc1c[nH]c2ccccc12)C(=O)N[C@@H](CCCC/N=C(\S)Nc1ccccc1Cl)C(=O)N[C@@H](CC(=O)O)C(=O)N[C@@H](Cc1ccccc1)C(N)=O` as the compound, how does the IC50 read?
**A.** 2.9 µM

Molecular target: Gastrin/cholecystokinin type B receptor (Cavia porcellus)
Assay: Binding affinity towards cholecystokinin type B receptor in guinea pig cortex by using [125I]BH-CCK-8 as radioligand

**Q.** With `COC(=O)c1cccc(NC(=O)NCCCC[C@H](NC(=O)[C@H](Cc2c[nH]c3ccccc23)NC(=O)OC(C)(C)C)C(=O)N[C@@H](CC(=O)O)C(=O)N[C@@H](Cc2ccccc2)C(N)=O)c1` (Boc-WK([CO-3Abz-OMe])DF-NH2) as the compound, how does the IC50 read?
**A.** 1.4 µM

**Q.** How did the IC50 turn out when `CC(C)(C)OC(=O)N[C@@H](Cc1c[nH]c2ccccc12)C(=O)N[C@@H](CCCCNC(=O)Nc1cccc(Cl)c1Cl)C(=O)N[C@@H](CC(=O)O)C(=O)N[C@@H](Cc1ccccc1)C(N)=O` [3-{2-[2-tert-Butoxycarbonylamino-3-(1H-indol-3-yl)-propionylamino]-6-[3-(2,3-dichloro-phenyl)-ureido]-hexanoylamino}-N-(1-carbamoyl-2-phenyl-ethyl)-succinamic acid] (Boc-WK([CO-X7])DF-NH2) was run?
**A.** 3 µM

From BindingDB's records for doi:10.1021/jm00113a023 (Abbott Laboratories, 1991)
